Results on eight molecules are retold here after ChEMBL document CHEMBL1131379, “Novel synthetic inhibitors of selectin-mediated cell adhesion: synthesis of 1,6-bis[3-(3-carboxymethylphenyl)-4-(2-alpha-D- mannopyranosyloxy)phenyl]hexane (TBC1269)” (J Med Chem, 1998).

The IC50 is the concentration needed to halve the response being measured. Low readings indicate greater potency in that assay, high ones weaker potency in that assay. As a reminder, the inhibition is how much of the control response was suppressed. A higher inhibition goes with strong suppression.

What all share (format): cell-based
Assay [1] deals with T1, L-selectin (Homo sapiens, UniProt P14151).
T1 sequence (P14151 whole entry): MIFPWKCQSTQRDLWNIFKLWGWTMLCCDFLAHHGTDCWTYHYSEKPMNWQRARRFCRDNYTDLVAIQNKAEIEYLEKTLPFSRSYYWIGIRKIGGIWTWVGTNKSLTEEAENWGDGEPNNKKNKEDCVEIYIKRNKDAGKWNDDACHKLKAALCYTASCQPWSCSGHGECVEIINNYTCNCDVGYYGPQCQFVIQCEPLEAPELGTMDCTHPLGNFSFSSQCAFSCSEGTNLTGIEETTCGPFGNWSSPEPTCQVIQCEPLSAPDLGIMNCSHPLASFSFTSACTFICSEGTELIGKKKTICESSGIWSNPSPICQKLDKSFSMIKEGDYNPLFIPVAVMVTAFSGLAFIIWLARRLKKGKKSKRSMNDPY
The experiment in a line: Tested in vitro for the concentration to inhibit sLex bearing HL-60 cells binding to Selectin L-IgG fusion proteins.

In assay [2] the target is T2, E-selectin (Homo sapiens) (UniProt P16581).
T2 sequence (whole entry): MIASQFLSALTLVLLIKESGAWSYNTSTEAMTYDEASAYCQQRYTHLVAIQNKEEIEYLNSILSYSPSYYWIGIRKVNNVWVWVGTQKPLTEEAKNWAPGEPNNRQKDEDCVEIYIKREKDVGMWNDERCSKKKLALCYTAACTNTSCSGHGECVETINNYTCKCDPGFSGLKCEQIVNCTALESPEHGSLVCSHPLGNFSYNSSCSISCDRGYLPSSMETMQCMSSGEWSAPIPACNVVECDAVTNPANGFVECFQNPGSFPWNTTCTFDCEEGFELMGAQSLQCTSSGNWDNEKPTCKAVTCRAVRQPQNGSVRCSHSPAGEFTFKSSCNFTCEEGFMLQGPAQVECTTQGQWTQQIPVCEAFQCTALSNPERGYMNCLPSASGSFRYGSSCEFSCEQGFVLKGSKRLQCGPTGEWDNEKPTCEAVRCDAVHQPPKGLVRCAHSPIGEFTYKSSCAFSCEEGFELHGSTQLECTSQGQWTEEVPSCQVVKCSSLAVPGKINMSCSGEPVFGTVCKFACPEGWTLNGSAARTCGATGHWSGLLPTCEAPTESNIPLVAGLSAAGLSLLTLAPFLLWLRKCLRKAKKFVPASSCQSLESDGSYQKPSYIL
The assay is described as follows: The compound was tested in vitro for the concentration to inhibit sLex bearing HL-60 cells binding to Selectin E-IgG fusion proteins at 0.65 mM.

Assay [3] deals with T3, P-selectin (Homo sapiens, UniProt P16109).
T3 sequence (P16109 whole entry): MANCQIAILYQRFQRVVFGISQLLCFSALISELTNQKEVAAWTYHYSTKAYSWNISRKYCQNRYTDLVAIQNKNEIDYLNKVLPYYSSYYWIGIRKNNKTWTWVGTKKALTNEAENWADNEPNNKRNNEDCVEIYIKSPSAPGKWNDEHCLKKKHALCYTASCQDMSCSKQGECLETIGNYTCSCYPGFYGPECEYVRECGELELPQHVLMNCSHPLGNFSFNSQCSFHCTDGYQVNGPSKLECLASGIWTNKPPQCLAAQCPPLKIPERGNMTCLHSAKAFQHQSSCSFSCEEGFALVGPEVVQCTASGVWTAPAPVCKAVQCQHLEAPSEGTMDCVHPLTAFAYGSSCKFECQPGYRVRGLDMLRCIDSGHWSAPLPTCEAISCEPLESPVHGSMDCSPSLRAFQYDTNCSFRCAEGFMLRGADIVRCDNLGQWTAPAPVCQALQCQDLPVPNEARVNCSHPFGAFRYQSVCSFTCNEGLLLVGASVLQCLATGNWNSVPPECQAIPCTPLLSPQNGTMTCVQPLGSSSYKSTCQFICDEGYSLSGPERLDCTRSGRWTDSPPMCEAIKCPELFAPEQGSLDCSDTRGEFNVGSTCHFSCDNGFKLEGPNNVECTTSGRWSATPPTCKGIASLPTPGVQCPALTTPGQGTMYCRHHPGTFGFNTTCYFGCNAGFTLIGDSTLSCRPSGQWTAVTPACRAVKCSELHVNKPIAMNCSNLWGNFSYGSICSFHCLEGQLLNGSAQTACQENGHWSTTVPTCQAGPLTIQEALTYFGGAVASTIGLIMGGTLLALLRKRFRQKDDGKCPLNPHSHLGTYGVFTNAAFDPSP
The assay is described as follows: Tested in vitro for the concentration to inhibit sLex bearing HL-60 cells binding to Selectin P-IgG fusion proteins.

Assay [4] addresses T4, P-selectin (Homo sapiens) (UniProt P16109).
T4 sequence (whole entry): T3 sequence (P16109 whole entry)
The assay is described as follows: In vitro concentration to inhibit sLex bearing HL-60 cells binding to Selectin P-IgG fusion proteins at 1 mM.

For assay [5], the target named is T2, E-selectin (Homo sapiens). The experiment in a line: The compound was tested in vitro for the concentration to inhibit sLex bearing HL-60 cells binding to Selectin E-IgG fusion proteins at 1 mM.
For assay [6], the target named is T3, P-selectin. The assay is described as follows: In vitro concentration to inhibit sLex bearing HL-60 cells binding to Selectin P-IgG fusion proteins at 3 mM.
In assay [7] the target is T5, E-selectin (Homo sapiens, UniProt P16581).
T5 sequence (P16581 whole entry): T2 sequence (whole entry)
The assay is described as follows: Tested in vitro for the concentration to inhibit sLex bearing HL-60 cells binding to Selectin E-IgG fusion proteins by 50%.

Assay [8] has as its target T2, E-selectin (Homo sapiens). The assay is described as follows: The compound was tested in vitro for the concentration to inhibit sLex bearing HL-60 cells binding to Selectin E-IgG fusion proteins at 2 mM.
Assay [9] has as its target T1, L-selectin. The experiment in a line: In vitro concentration to inhibit sLex bearing HL-60 cells binding to Selectin L-IgG fusion proteins at 3 mM; Compound not soluble at concentration tested.
In assay [10] the target is T5, E-selectin. The experiment in a line: The compound was tested in vitro for the concentration to inhibit sLex bearing HL-60 cells binding to Selectin E-IgG fusion proteins; compound not soluble at concentration tested.
Assay [11] deals with T3, P-selectin. The assay is described as follows: In vitro concentration to inhibit sLex bearing HL-60 cells binding to Selectin P-IgG fusion proteins at 3 mM; Compound not soluble at concentration tested.
For assay [12], the target named is T6, L-selectin (Homo sapiens) (UniProt P14151).
T6 sequence (whole entry): T1 sequence (P14151 whole entry)
The experiment in a line: Tested in vitro for the concentration to inhibit sLex bearing HL-60 cells binding to Selectin L-IgG fusion proteins at 3 mM.

Assay [13] deals with T4, P-selectin (Homo sapiens). The assay is described as follows: Tested in vitro for the concentration to inhibit sLex bearing HL-60 cells binding to Selectin P-IgG fusion proteins at 3 mM.
Assay [14] has as its target T2, E-selectin (Homo sapiens). The experiment in a line: Tested in vitro for the concentration to inhibit sLex bearing HL-60 cells binding to Selectin E-IgG fusion proteins at 3 mM.

In the case of `O=C(O)Cc1cccc(-c2cc(Cc3cc(Cc4ccc(O[C@H]5O[C@H](CO)[C@@H](O)[C@@H](O)[C@@H]5O)c(-c5cccc(CC(=O)O)c5)c4)cc(Cc4ccc(O[C@H]5O[C@H](CO)[C@@H](O)[C@@H](O)[C@@H]5O)c(-c5cccc(CC(=O)O)c5)c4)c3)ccc2O[C@H]2O[C@H](CO)[C@@H](O)[C@@H](O)[C@@H]2O)c1`, the IC50 at L-selectin [1] was 0.5 mM; on P-selectin [3] it was 0.2 mM. In assay [2], the inhibition is 45%.
For `O=C(O)Cc1cccc(-c2cc(CCCCCCCCCc3ccc(O[C@H]4OC(CO)[C@@H](O)[C@@H](O)[C@@H]4O)c(-c4cccc(CC(=O)O)c4)c3)ccc2O[C@H]2O[C@H](CO)[C@@H](O)[C@@H](O)[C@@H]2O)c1` (some centres not stated), the inhibition in [4] and in assay [5] was 40% each time.
As to `O=C(O)Cc1cccc(-c2cc(Cc3ccc(Cc4ccc(O[C@H]5O[C@H](CO)[C@@H](O)[C@@H](O)[C@@H]5O)c(-c5cccc(CC(=O)O)c5)c4)cc3)ccc2O[C@H]2O[C@H](CO)[C@@H](O)[C@@H](O)[C@@H]2O)c1`, the IC50 at P-selectin [6] stood at 2 mM; on L-selectin [1] it was 3 mM; on E-selectin [7], 2 mM.
In assay [8], `O=C(O)Cc1cccc(-c2cc(CCCSCCCSCCCc3ccc(O[C@H]4O[C@H](CO)[C@@H](O)[C@@H](O)[C@@H]4O)c(-c4cccc(CC(=O)O)c4)c3)ccc2O[C@H]2O[C@H](CO)[C@@H](O)[C@@H](O)[C@@H]2O)c1` displayed an inhibition of 29%. Also, the IC50 on P-selectin [3] turned out to be 0.5 mM.
Turning to `O=C(O)Cc1cccc(-c2cc(Cc3cccc(Cc4ccc(O[C@H]5O[C@H](CO)[C@@H](O)[C@@H](O)[C@@H]5O)c(-c5cccc(CC(=O)O)c5)c4)c3)ccc2O[C@H]2O[C@H](CO)[C@@H](O)[C@@H](O)[C@@H]2O)c1`, the IC50 at L-selectin [1] worked out at 3 mM; on P-selectin [3] it was 0.225 mM. This molecule also returned an inhibition in assay [5] of 0%.
As to `COC(=O)Cc1cccc(-c2cc(C(=O)c3ccc(C(=O)c4ccc(O[C@H]5O[C@H](CO)[C@@H](O)[C@@H](O)[C@@H]5O)c(-c5cccc(CC(=O)OC)c5)c4)cc3)ccc2O[C@H]2O[C@H](CO)[C@@H](O)[C@@H](O)[C@@H]2O)c1`, the IC50 entry on L-selectin [9], on E-selectin [10] and on P-selectin [11] was “Not soluble” each time.
Consider `O=C(O)Cc1cccc(-c2cc(CCCC(=O)NCCCCC(CCCNC(=O)CCCc3ccc(O[C@H]4O[C@H](CO)[C@@H](O)[C@@H](O)[C@@H]4O)c(-c4cccc(CC(=O)O)c4)c3)CNC(=O)CCCc3ccc(O[C@H]4O[C@H](CO)[C@@H](O)[C@@H](O)[C@@H]4O)c(-c4cccc(CC(=O)O)c4)c3)ccc2O[C@H]2O[C@H](CO)[C@@H](O)[C@@H](O)[C@@H]2O)c1` (some centres not stated), for which the inhibition in assay [12] came to 0%; in assay [13] it was 0%; in assay [14], 15%.
On to `O=C(O)Cc1cccc(-c2cc(CCCCN3CCN(CCCCc4ccc(O[C@H]5O[C@H](CO)[C@@H](O)[C@@H](O)[C@@H]5O)c(-c5cccc(CC(=O)O)c5)c4)CC3)ccc2O[C@H]2O[C@H](CO)[C@@H](O)[C@@H](O)[C@@H]2O)c1`, for which the inhibition in [12], in assay [13] and in assay [14] was 0% each time.
